The numbers were not newly measured in patent US9925200B2, “Stable formulations of testosterone undecanoate” (Merck Sharp & Dohme B.V., priority 2014, dated 2018), which cites them from elsewhere.

Structures are written as SMILES.

Test in data set [1]: not given
The source holds these as a separate data set.

Consider `CCCCCCCCCCC(=O)O[C@H]1CC[C@H]2[C@@H]3CCC4=CC(=O)CC[C@]4(C)[C@H]3CC[C@]12C` [Testosterone undecanoate], for which the water solubility result is given as “very low”. Also, the “Log P” value in data set [1] is 9.1.

What is called Log P is a log measure of how a compound divides between an organic and an aqueous phase.
